The values that follow come from publication PMC11765572 (International Journal of Molecular Sciences, 2025).

Where two headings read alike, the source gives them in different places.

Data set [1] deals with SARS-CoV-2 (BetaCov/Belgium/GHB-03021/2020 B.1 lineage A). The conditions noted are these: […]; mean ± SD of two independent replicates.
The test system of data set [2] is SARS-CoV-2 delta strains. More on the design: method as in PMID 39072488. The conditions noted are these: delta strain, Vero E6 cells, viral copy numbers in supernatant by qRT-PCR; cited from earlier work.
For data set [3], the target named is T1, SARS-CoV-2 M^pro (Severe acute respiratory syndrome coronavirus 2, UniProt P0DTD1).
T1 construct: main protease (M^pro, also known as Nsp5 and 3C-like protease); purchased Beyotime P0312S
Put plainly: biochemical. The conditions noted are these: FRET; for IC50: substrate Dabcyl-[…]-Edans, mean ± SD of three independent measurements; for inhibition at 1 µM: single concentration of 1 μM, read-out: inhibition rate.

In data set [4] the test system is SARS-CoV-2 (BetaCov/Belgium/GHB-03021/2020 B.1 lineage A). Put plainly: microbe, parasite or virus in culture. The conditions noted are these: Severe acute respiratory syndrome coronavirus 2, 96 h, mean ± SD of two independent replicates.
Data set [5] can be described thus: in vitro. The conditions noted are these: African green monkey.
Data set [6] has as its system SARS-CoV-2 (BetaCov/Belgium/GHB-03021/2020 B.1 lineage A). The conditions noted are these: VeroE6-eGFP cells; from a previous report, measured under identical conditions; cited from earlier work.
Data set [7] deals with VeroE6-eGFP cells. The conditions noted are these: from a previous report, measured under identical conditions; cited from earlier work.

For the compound `CNC(=O)c1cc(Br)cc([N+](=O)[O-])c1N[C@@H]1CCCC[C@@H]1NC(=O)c1cc(=O)[nH]c2ccccc12` [Compound A9, N-((1S,2R)-2-((4-bromo-2-(methylcarbamoyl)-6-nitrophenyl)amino)cyclohexyl)-2-oxo-1,2-dihydroquinoline-4-carboxamide], the EC50 (commonly the concentration giving half of the maximal effect) was “micromolar or submicromolar range” in data set [1], 0.849 µM in data set [2] and 0.18 ± 0.02 µM in data set [4]. Besides, half-maximal inhibition in data set [3] (IC50) required 0.154 ± 0.006 µM. The inhibition (usually the drop in the measured response relative to a control, in per cent) at 1 µM in data set [3] worked out at 92%. The compound further displayed a CC50 at 5 days in data set [5] of over 100 µM.
With `CNC(=O)c1cc(Br)cc([N+](=O)[O-])c1N[C@@H]1CCCC[C@@H]1NC(=O)c1cccnc1` [Compound A5, N-((1S,2R)-2-((4-bromo-2-(methylcarbamoyl)-6-nitrophenyl)amino)cyclohexyl)nicotinamide], in data set [3], half-maximal inhibition (IC50) was put at 1.05 ± 0.067 µM and the inhibition at 1 µM came out at 53.7%. The same compound registered an EC50 in data set [4] of 2.01 to 6.05 µM. Moreover, in data set [5], the CC50 at 5 days is over 100 µM.
For `CC(C)(C)[C@H](NC(=O)C(F)(F)F)C(=O)N1C[C@H]2[C@@H]([C@H]1C(=O)N[C@H](C#N)C[C@@H]1CCNC1=O)C2(C)C` [Nirmatrelvir], the EC50 in data set [6] was 0.123 ± 0.034 µM. Moreover, in data set [7], the CC50 was over 100 µM.
In the case of `CNC(=O)c1cc(Br)cc([N+](=O)[O-])c1N[C@@H]1CCCC[C@@H]1NC(=O)c1cncc(O)c1` [Compound A6, N-((1S,2R)-2-((4-bromo-2-(methylcarbamoyl)-6-nitrophenyl)amino)cyclohexyl)-5-hydroxynicotinamide], in data set [3], the IC50 (commonly the concentration at which inhibition is half-maximal) was 1.08 ± 0.023 µM and the inhibition at 1 µM is 55.5%. In addition, the CC50 at 5 days in data set [5] is over 100 µM.
